Data set [1] relates to Staphylococcus aureus. Description: Antibacterial activity against Staphylococcus aureus ATCC 29213 incubated for 16 to 18 hrs by CLSI-based microbroth dilution method. The class given is functional. The following applies: time 16-18 hrs. (In general: Dilution methods test growth across graded concentrations, often in twofold steps.)
In data set [2] the test system is Staphylococcus aureus. Description: Antibacterial activity against methicillin-resistant Staphylococcus aureus clinical isolate 1 incubated for 16 to 18 hrs by CLSI-based microbroth dilution method. The class given is functional. The following applies: time 16-18 hrs.
Data set [3] deals with Staphylococcus aureus. Kind of data set: Antibacterial activity against methicillin-resistant Staphylococcus aureus clinical isolate 2 incubated for 16 to 18 hrs by CLSI-based microbroth dilution method. In kind it is functional. Particulars: time 16-18 hrs.
Data set [4] deals with Staphylococcus aureus. Kind of data set: Antibacterial activity against methicillin-resistant Staphylococcus aureus clinical isolate 3 incubated for 16 to 18 hrs by CLSI-based microbroth dilution method. In kind it is functional. The following applies: time 16-18 hrs.
Data set [5] relates to Staphylococcus aureus. Kind of data set: Antibacterial activity against methicillin-resistant Staphylococcus aureus clinical isolate 4 incubated for 16 to 18 hrs by CLSI-based microbroth dilution method. In kind it is functional. Particulars: time 16-18 hrs.
Data set [6] concerns Staphylococcus aureus. Kind of data set: Antibacterial activity against methicillin-resistant Staphylococcus aureus clinical isolate 5 incubated for 16 to 18 hrs by CLSI-based microbroth dilution method. The following applies: time 16-18 hrs. In kind it is functional.
Data set [7] has as its system Staphylococcus aureus. Description: Antibacterial activity against methicillin-resistant Staphylococcus aureus clinical isolate 6 incubated for 16 to 18 hrs by CLSI-based microbroth dilution method. The following applies: time 16-18 hrs. In kind it is functional.
Data set [8] relates to Staphylococcus aureus. Kind of data set: Antibacterial activity against methicillin-resistant Staphylococcus aureus clinical isolate 7 incubated for 16 to 18 hrs by CLSI-based microbroth dilution method. The following applies: time 16-18 hrs. The class given is functional.
The subject of data set [9] is Staphylococcus aureus. Description: Antibacterial activity against methicillin-resistant Staphylococcus aureus clinical isolate 8 incubated for 16 to 18 hrs by CLSI-based microbroth dilution method. In kind it is functional. The following applies: time 16-18 hrs.
In data set [10] the test system is Staphylococcus aureus. Description: Antibacterial activity against methicillin-resistant Staphylococcus aureus clinical isolate 9 incubated for 16 to 18 hrs by CLSI-based microbroth dilution method. In kind it is functional. Particulars: time 16-18 hrs.
Data set [11] concerns Staphylococcus aureus. Kind of data set: Antibacterial activity against methicillin-resistant Staphylococcus aureus clinical isolate 10 incubated for 16 to 18 hrs by CLSI-based microbroth dilution method. In kind it is functional. The following applies: time 16-18 hrs.
Data set [12] in a line: Hemolytic activity in sheep erythrocytes incubated for 1 hr by absorbance based analysis. The class given is toxicity, cell-based, Ovis aries, Erythrocyte.

Drawing on ChEMBL document CHEMBL5316298, “Discovery of Amphiphilic Xanthohumol Derivatives as Membrane-Targeting Antimicrobials against Methicillin-Resistant Staphylococcus aureus” (J Med Chem, 2023), this text covers MIC and HC50 for twelve compounds.

Broadly, the MIC is the lowest concentration found to suppress growth. A lower MIC goes with a more susceptible organism. Broadly, the HC50 is the concentration that lyses half of the red blood cells. High values mean weaker haemolysis, low ones stronger haemolysis.

On to `COc1cc2c(c(O)c1C(=O)/C=C/c1ccc(OCCC[N+](C)(C)CC(=O)N3CCOCC3)cc1)C=CC(C)(C)O2.[Br-]`, for which the MIC in the data set with Staphylococcus aureus [1] is 8 µg/mL; in the data set on Staphylococcus aureus [2] it was 8 µg/mL; against Staphylococcus aureus [3] it was 8 µg/mL; against Staphylococcus aureus [4] it was 8 µg/mL; with Staphylococcus aureus [5], 16 µg/mL; against Staphylococcus aureus [6] it was 8 µg/mL. Further, the MIC in the data set on Staphylococcus aureus [7] was found to be 8 µg/mL; with Staphylococcus aureus [8], 4 µg/mL; in the data set on Staphylococcus aureus [9] it was 8 µg/mL; against Staphylococcus aureus [10] it was 8 µg/mL; against Staphylococcus aureus [11] it was 8 µg/mL. In data set [12], the HC50 at 1 h is more than 1280 µg/mL.
`COc1cc2c(c(O)c1C(=O)/C=C/c1ccc(OCCCC[N+](C)(C)CC(=O)N3CCSCC3)cc1)C=CC(C)(C)O2.[Br-]`: the MIC against Staphylococcus aureus [1] was 4 µg/mL; in the data set on Staphylococcus aureus [2], 4 µg/mL; in the data set on Staphylococcus aureus [3], 2 µg/mL; against Staphylococcus aureus [4], 2 µg/mL; with Staphylococcus aureus [5] it was 4 µg/mL; with Staphylococcus aureus [6] it was 4 µg/mL. Moreover, the MIC in the data set with Staphylococcus aureus [7] came out at 2 µg/mL; against Staphylococcus aureus [8], 4 µg/mL; in the data set with Staphylococcus aureus [9] it was 4 µg/mL; in the data set on Staphylococcus aureus [10], 2 µg/mL; against Staphylococcus aureus [11], 2 µg/mL. The compound further gave an HC50 at 1 h in data set [12] of 705 µg/mL.
As to `COc1cc2c(c(O)c1C(=O)/C=C/c1ccc(OCCCCC[N+](C)(C)CC(=O)N3CCSCC3)cc1)C=CC(C)(C)O2.[Br-]`, the MIC in the data set with Staphylococcus aureus [1] was determined as 4 µg/mL; with Staphylococcus aureus [2], 8 µg/mL; in the data set with Staphylococcus aureus [3], 4 µg/mL; in the data set on Staphylococcus aureus [4] it was 4 µg/mL; in the data set with Staphylococcus aureus [5] it was 4 µg/mL; in the data set with Staphylococcus aureus [6], 4 µg/mL. Further, the MIC in the data set with Staphylococcus aureus [7] came out at 2 µg/mL; with Staphylococcus aureus [8], 4 µg/mL; in the data set on Staphylococcus aureus [9] it was 4 µg/mL; against Staphylococcus aureus [10], 1 µg/mL; against Staphylococcus aureus [11], 1 µg/mL. Moreover, the HC50 at 1 h in data set [12] worked out at 210 µg/mL.
In the case of `COc1cc2c(c(O)c1C(=O)/C=C/c1ccc(OCCCC[N+](C)(C)CC(=O)N3CCOCC3)cc1)C=CC(C)(C)O2.[Br-]`, the MIC was 8 µg/mL in the data set with Staphylococcus aureus [1]; 8 µg/mL against Staphylococcus aureus [2]; 8 µg/mL against Staphylococcus aureus [3]; 4 µg/mL with Staphylococcus aureus [4]; 8 µg/mL in the data set on Staphylococcus aureus [5]; 4 µg/mL in the data set with Staphylococcus aureus [6]. For the same compound, the MIC in the data set with Staphylococcus aureus [7] turned out to be 4 µg/mL; with Staphylococcus aureus [8], 4 µg/mL; against Staphylococcus aureus [9], 4 µg/mL; against Staphylococcus aureus [10], 8 µg/mL; in the data set with Staphylococcus aureus [11], 16 µg/mL. In addition, the HC50 at 1 h in [12] was more than 1280 µg/mL.
As for `CCCCCNC(=O)C[N+](C)(C)CCCOc1ccc(/C=C/C(=O)c2c(OC)cc3c(c2O)C=CC(C)(C)O3)cc1.[Br-]`, the MIC was 2 µg/mL against Staphylococcus aureus [1]; 2 µg/mL in the data set with Staphylococcus aureus [2]; 4 µg/mL in the data set on Staphylococcus aureus [3]; 2 µg/mL with Staphylococcus aureus [4]; 4 µg/mL against Staphylococcus aureus [5]; 2 µg/mL with Staphylococcus aureus [6]. Besides, the MIC with Staphylococcus aureus [7], in the data set on Staphylococcus aureus [8], in the data set with Staphylococcus aureus [9], with Staphylococcus aureus [10] and with Staphylococcus aureus [11] was 4 µg/mL throughout. The same compound registered an HC50 at 1 h in [12] of 169 µg/mL.
On to `CCCCCNC(=O)C[N+](C)(C)CCCCCOc1ccc(/C=C/C(=O)c2c(OC)cc3c(c2O)C=CC(C)(C)O3)cc1.[Br-]`, for which the MIC in the data set on Staphylococcus aureus [1], in the data set on Staphylococcus aureus [2], with Staphylococcus aureus [3], in the data set on Staphylococcus aureus [4], against Staphylococcus aureus [5] and in the data set with Staphylococcus aureus [6] was 2 µg/mL in each case. For the same compound, the MIC is 2 µg/mL with Staphylococcus aureus [7]; 4 µg/mL in the data set with Staphylococcus aureus [8]; 2 µg/mL in the data set on Staphylococcus aureus [9]; 8 µg/mL in the data set with Staphylococcus aureus [10]; 4 µg/mL against Staphylococcus aureus [11]. The HC50 at 1 h in [12] stood at 301 µg/mL.
Turning to `COc1cc2c(c(O)c1C(=O)/C=C/c1ccc(OCCCCC[N+](C)(C)CC(=O)N3CCOCC3)cc1)C=CC(C)(C)O2.[Br-]`, the MIC in the data set with Staphylococcus aureus [1] worked out at 8 µg/mL; against Staphylococcus aureus [2] it was 2 µg/mL; against Staphylococcus aureus [3], 4 µg/mL; against Staphylococcus aureus [4], 4 µg/mL; against Staphylococcus aureus [5], 4 µg/mL; against Staphylococcus aureus [6], 4 µg/mL. Besides, the MIC was 2 µg/mL in the data set with Staphylococcus aureus [7]; 4 µg/mL in the data set with Staphylococcus aureus [8]; 4 µg/mL against Staphylococcus aureus [9]; 4 µg/mL in the data set with Staphylococcus aureus [10]; 2 µg/mL against Staphylococcus aureus [11]. The concentration for 50% haemolysis (HC50) at 1 h in [12] was more than 1280 µg/mL.
As for `CCCNC(=O)C[N+](C)(C)CCCOc1ccc(/C=C/C(=O)c2c(OC)cc3c(c2O)C=CC(C)(C)O3)cc1.[Br-]`, the MIC in the data set on Staphylococcus aureus [1] came to 4 µg/mL; against Staphylococcus aureus [2], 4 µg/mL; with Staphylococcus aureus [3] it was 2 µg/mL; with Staphylococcus aureus [4] it was 2 µg/mL; in the data set on Staphylococcus aureus [5], 4 µg/mL; against Staphylococcus aureus [6], 2 µg/mL. Further, the MIC against Staphylococcus aureus [7] amounted to 2 µg/mL; in the data set on Staphylococcus aureus [8], 2 µg/mL; in the data set on Staphylococcus aureus [9], 2 µg/mL; in the data set on Staphylococcus aureus [10], 2 µg/mL; with Staphylococcus aureus [11] it was 4 µg/mL. The same compound registered an HC50 at 1 h in [12] of 210 µg/mL.
On to `CCCCN(CCCC)C(=O)C[N+](C)(C)CCCOc1ccc(/C=C/C(=O)c2c(OC)cc3c(c2O)C=CC(C)(C)O3)cc1.[Br-]`, for which the MIC in the data set on Staphylococcus aureus [1] came out at 2 µg/mL; against Staphylococcus aureus [2] it was 2 µg/mL; against Staphylococcus aureus [3] it was 2 µg/mL; with Staphylococcus aureus [4], 2 µg/mL; against Staphylococcus aureus [5], 2 µg/mL; against Staphylococcus aureus [6], 1 µg/mL. Besides, the MIC in the data set with Staphylococcus aureus [7] amounted to 1 µg/mL; against Staphylococcus aureus [8], 1 µg/mL; in the data set on Staphylococcus aureus [9], 1 µg/mL; against Staphylococcus aureus [10] it was 2 µg/mL; in the data set with Staphylococcus aureus [11], 2 µg/mL. For the same compound, in data set [12], the HC50 at 1 h is 434 µg/mL.
Regarding `COc1cc2c(c(O)c1C(=O)/C=C/c1ccc(OCCCC[N+](C)(C)CC(=O)N(CC(C)C)CC(C)C)cc1)C=CC(C)(C)O2.[Br-]`, the MIC in the data set with Staphylococcus aureus [1] came to 4 µg/mL; with Staphylococcus aureus [2] it was 2 µg/mL; in the data set with Staphylococcus aureus [3], 2 µg/mL; against Staphylococcus aureus [4] it was 1 µg/mL; against Staphylococcus aureus [5] it was 4 µg/mL; in the data set on Staphylococcus aureus [6] it was 1 µg/mL. Also, the MIC came out at 1 µg/mL with Staphylococcus aureus [7]; 1 µg/mL in the data set on Staphylococcus aureus [8]; 2 µg/mL against Staphylococcus aureus [9]; 2 µg/mL against Staphylococcus aureus [10]; 4 µg/mL with Staphylococcus aureus [11]. The same compound showed an HC50 at 1 h in data set [12] of 333 µg/mL.
Turning to `CCCCCNC(=O)C[N+](C)(C)CCCCOc1ccc(/C=C/C(=O)c2c(OC)cc3c(c2O)C=CC(C)(C)O3)cc1.[Br-]`, the MIC with Staphylococcus aureus [1] worked out at 4 µg/mL; against Staphylococcus aureus [2], 4 µg/mL; in the data set with Staphylococcus aureus [3], 4 µg/mL; in the data set on Staphylococcus aureus [4], 4 µg/mL; with Staphylococcus aureus [5], 8 µg/mL; in the data set with Staphylococcus aureus [6], 4 µg/mL. Further, the MIC against Staphylococcus aureus [7] amounted to 2 µg/mL; with Staphylococcus aureus [8], 4 µg/mL; against Staphylococcus aureus [9], 4 µg/mL; against Staphylococcus aureus [10] it was 4 µg/mL; in the data set with Staphylococcus aureus [11], 4 µg/mL. The compound also returned an HC50 at 1 h in [12] of 83.4 µg/mL.
For the compound `CCCCN(CCCC)C(=O)C[N+](C)(C)CCCCCOc1ccc(/C=C/C(=O)c2c(OC)cc3c(c2O)C=CC(C)(C)O3)cc1.[Br-]`, the MIC against Staphylococcus aureus [1] is 2 µg/mL; with Staphylococcus aureus [2], 2 µg/mL; against Staphylococcus aureus [3] it was 2 µg/mL; with Staphylococcus aureus [4] it was 4 µg/mL; in the data set with Staphylococcus aureus [5], 8 µg/mL; in the data set with Staphylococcus aureus [6] it was 2 µg/mL. Also, the MIC in the data set on Staphylococcus aureus [7] worked out at 1 µg/mL; in the data set on Staphylococcus aureus [8], 2 µg/mL; against Staphylococcus aureus [9] it was 4 µg/mL; in the data set on Staphylococcus aureus [10] it was 8 µg/mL; against Staphylococcus aureus [11], 2 µg/mL. The compound further registered an HC50 at 1 h in data set [12] of 409 µg/mL.
